Experimental findings from the NIST ThermoML archive (doi:10.1016/j.jct.2019.04.021) are described below.

Each structure is given as a SMILES string. ± gives the expanded uncertainty stated by the source.

For the data set the following is noted: 298 K; 101.33 kPa; Crystal; X-ray diffraction.

The term mass density denotes mass per unit of volume. With `[O-2].[O-2].[O-2].[Pr+3].[Pr+3]` [praseodymium oxide (Pr2O3)], the mass density was determined as 7060.5 ± 7.2 kg/m3.
